Consider 7 compounds from PubChem BioAssay (NCI).

Structures are written as SMILES.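 Exposure lasted 48 hours, with cells grown in 96-well plates and compounds tested at five concentrations. GI50 = concentration required for 50% inhibition of growth. TGI is the concentration that stops growth completely.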

Among the test systems are SK-MEL-28 melanoma; MOLT-4 leukemia; HCT-15 colon; MDA-MB-435; HOP-62 NSCLC; M14 melanoma; HT29 colon; NCI-H226 lung; ACHN renal; OVCAR-4 ovarian.
What all share (assay): NCI-60 cell line screen, 48 h

Regarding `CCCN(CCC)c1ccc(C=O)cc1`, the GI50 in the test with SK-MEL-28 melanoma was over 100 µM; in the test with MOLT-4 leukemia, 29.8 µM; in the test on HCT-15 colon, over 84.2 µM; in the test on MDA-MB-435, 39.7 µM; in the test on HOP-62 NSCLC, over 88 µM; in the test with M14 melanoma, over 100 µM. Besides, the GI50 in the test with HT29 colon was 52 µM; in the test on NCI-H226 lung, 30 µM; with ACHN renal it was 77.7 µM; with OVCAR-4 ovarian, 26.5 µM. Further, the TGI in the test on SK-MEL-28 melanoma, with MOLT-4 leukemia, in the test on HCT-15 colon, with MDA-MB-435, in the test with HOP-62 NSCLC and in the test on M14 melanoma was over 100 µM each time. Further, the TGI in the test on HT29 colon, in the test on NCI-H226 lung, in the test on ACHN renal and in the test on OVCAR-4 ovarian was over 100 µM throughout.

For the compound `O=C(O)CN(CC(=O)O)Cc1cc2c(cc1O)Oc1cc(O)c(CN(CC(=O)O)CC(=O)O)cc1C21OC(=O)c2ccccc21`, the TGI in the test on SK-MEL-28 melanoma, with MOLT-4 leukemia, with HCT-15 colon, in the test on MDA-MB-435, in the test with HOP-62 NSCLC and in the test with M14 melanoma was over 100 µM each time. Also, the TGI in the test on HT29 colon, in the test on NCI-H226 lung, with ACHN renal and in the test on OVCAR-4 ovarian was over 100 µM throughout.

Consider `CCOC(=O)C1=C(N)Oc2c(sc3c(C)cccc23)C1c1ccc(Cl)cc1` (stereo not given), for which the GI50 was 10.3 µM in the test with SK-MEL-28 melanoma; 3.58 µM with MOLT-4 leukemia; 2.02 µM with HCT-15 colon; 0.447 µM in the test on MDA-MB-435; 3.81 µM with HOP-62 NSCLC; 2.46 µM in the test on M14 melanoma. The GI50 in the test with HT29 colon was 3.16 µM; with NCI-H226 lung, 5.02 µM; in the test on ACHN renal, 3.17 µM; with OVCAR-4 ovarian it was 6.92 µM. The TGI amounted to 23.6 µM in the test on SK-MEL-28 melanoma; 19.7 µM in the test on MOLT-4 leukemia; 10.6 µM in the test with HCT-15 colon; 2.59 µM with MDA-MB-435; 21.8 µM in the test on HOP-62 NSCLC; 11.2 µM in the test on M14 melanoma. The TGI in the test with HT29 colon stood at 11.8 µM; in the test on NCI-H226 lung, 19.8 µM; in the test on ACHN renal it was 17.6 µM; with OVCAR-4 ovarian, 21 µM.

For the compound `C#CC[C@@H]1C[C@]2(C)[C@H]3CC[C@@H]4[C@H]5[C@H](C(=C)C)CC[C@]5(C(=O)O)CC[C@@]4(C)[C@]3(C)CC[C@H]2C(C)(C)[C@H]1O`, the GI50 in the test on SK-MEL-28 melanoma is 2.75 µM; with MOLT-4 leukemia, 3.16 µM; in the test on HCT-15 colon it was 1.89 µM; in the test on MDA-MB-435 it was 3.03 µM; with HOP-62 NSCLC it was 2.08 µM; in the test on M14 melanoma, 2.05 µM. In addition, the GI50 was 1.93 µM in the test with HT29 colon, 2.05 µM in the test on NCI-H226 lung, 1.5 µM with ACHN renal and 1.93 µM in the test with OVCAR-4 ovarian. For the same compound, the TGI in the test on SK-MEL-28 melanoma was 7.6 µM; with MOLT-4 leukemia, over 100 µM; in the test on HCT-15 colon, 6.61 µM; in the test on MDA-MB-435, 10.8 µM; in the test with HOP-62 NSCLC, 5.28 µM; in the test on M14 melanoma, 4.68 µM. In addition, the TGI amounted to 3.69 µM in the test on HT29 colon, 6.56 µM with NCI-H226 lung, 3.18 µM in the test on ACHN renal and 3.83 µM in the test with OVCAR-4 ovarian.

For the compound `O=C(Nc1ccc(Cl)c(Cl)c1)C(=O)C(C1OC(=O)c2ccccc21)[N+](=O)[O-]` (stereo not given), the TGI with SK-MEL-28 melanoma, in the test with MOLT-4 leukemia, in the test with HCT-15 colon, in the test with MDA-MB-435, in the test with HOP-62 NSCLC and with M14 melanoma was over 100 µM in each case. The TGI in the test with HT29 colon, in the test with NCI-H226 lung, with ACHN renal and with OVCAR-4 ovarian was over 100 µM throughout.

Consider `C[N+](C)(C)CCC(=O)N1C/C(=C\c2ccccc2)C(=O)/C(=C/c2ccccc2)C1`, for which the TGI in the test on SK-MEL-28 melanoma was found to be 15.4 µM; in the test with MOLT-4 leukemia it was 7.31 µM; with HCT-15 colon it was 6.49 µM; with MDA-MB-435, 5.49 µM; in the test on HOP-62 NSCLC it was 33.6 µM; in the test on M14 melanoma it was 7.54 µM. For the same compound, the TGI is 7.93 µM in the test with HT29 colon, 20 µM in the test with NCI-H226 lung, 15.3 µM in the test on ACHN renal and 9.79 µM in the test on OVCAR-4 ovarian.

For `C=CCCC(O)c1ccc(C(O)CCCCCCCCCCCC)o1` (stereo not given), the GI50 is 27.1 µM with SK-MEL-28 melanoma; 7.16 µM in the test on MOLT-4 leukemia; 16.2 µM with HCT-15 colon; 17.8 µM in the test on MDA-MB-435; 19.1 µM in the test with HOP-62 NSCLC; 17.8 µM with M14 melanoma. The GI50 in the test with HT29 colon is 32.3 µM; with NCI-H226 lung, 21.7 µM; with ACHN renal, 15.8 µM; in the test on OVCAR-4 ovarian it was 30.9 µM. In addition, the TGI came out at 65.5 µM in the test on SK-MEL-28 melanoma; 38.3 µM in the test with MOLT-4 leukemia; 31.6 µM in the test on HCT-15 colon; 34.7 µM in the test with MDA-MB-435; 34.8 µM in the test on HOP-62 NSCLC; 35.3 µM in the test on M14 melanoma. The TGI is over 100 µM in the test with HT29 colon, 43.9 µM in the test with NCI-H226 lung, 29.2 µM with ACHN renal and 92.9 µM in the test with OVCAR-4 ovarian.
